Measurements reported in US20240124465A1, “MOLECULES AND METHODS RELATED TO TREATMENT OF DISORDERS ASSOCIATED WITH JAK-2 SIGNALING DYSFUNCTION” (ST. JUDE CHILDREN'S RESEARCH HOSPITAL, priority 2020, published 2024).

Tests used:
Assay type in all cases: cell-based
[1] = target: T1, GSPT1 (Homo sapiens, UniProt P15170); assay: Western blot assay, GSPT1 neosubstrate degradation; conditions: MHHCALL4; 100 nM, 24 h; MHH-CALL-4 cells; vehicle control = 100%
T1 construct: endogenous in cells; host or cells: MHH-CALL-4
Summary of the method: (§1)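 MHH-CALL-4 lysates (RIPA + protease inhibitors, 15 min on ice); BCA-quantified; 10-20 μg/lane, 4%-12% Bis-Tris gel; immunoblot, infrared imaging. Readout: target/ACBT ratio, vehicle = 100%.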

[2] = tested on: JAK2; assay: Western blot assay, JAK2 protein degradation; conditions: MHH-CALL-4 cells, vehicle control = 100%
Summary of the method: as §1

[3] = target: T2, IKZF1 (Homo sapiens, UniProt Q13422); assay: Western blot assay, IKZF1 neosubstrate degradation; conditions: MHH-CALL-4 cells, vehicle control = 100%
T2 construct: endogenous in cells; host or cells: MHH-CALL-4
Protocol: (§2) Western blot assay: MHH-CALL-4 Cells were washed twice with ice-cold PBS and lysed in RIPA lysis buffer (Sigma) freshly supplemented with Halt™ Protease Inhibitor Cocktail (ThermoFisher) for 15 minutes on ice. The cell pellet was removed by centrifugation at 13,000 g at 4° C. for 15 minutes. Protein concentration was measured by BCA assay (Thermo Fisher Scientific). Proteins were denatured in NuPAGE LDS 4× sample buffer supplemented with reducing agents (Invitrogen). Typically, 10-20 μg of total protein was loaded per lane on a 4%-12% NUPAGE Bis-Tris gradient gel (Invitrogen) and analyzed by standard immunoblotting and imaged using Li—COR Odyssey CLx (LI-COR Biotechnology, Lincoln, NE). To access the protein degradation, the signal of target protein was normalized by the signal of ACBT and the signal of vehicle control was set as 100%. Primary antibodies used were: JAK1 (Cell Signaling #3332S), JAK2 (#3230S), JAK3 (#8827S), TYK2 (#9312S), GSPT1 (#14980S), CRBN (#71810S), IKZF1 (Santa Cruz Biotechnology, SC-398265) and ACBT (Santa Cruz Biotechnology, SC-47778).

[4] = tested on: MHH-CALL-4 cells; assay: Cytotoxicity assay (resazurin, 72 hours); design: AUC: unit not given beside the values; conditions: for EC50: MHHCALL4, resazurin; for AUC: area under the dose-response curve
Summary of the method: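 Cells grown in RPMI1640 with 10% FBS, 2×10⁵ per well, were exposed to pin-transferred compounds in triplicate for 72 h at 37 °C, 5% CO2. Viability was read after 4 h resazurin incubation. Dose-response AUC was calculated per compound; selected data were fitted by non-linear regression.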

[5] = target: T3, JAK3 (Homo sapiens, UniProt P52333); assay: Western blot assay, JAK3 protein degradation; conditions: MHHCALL4; 100 nM, 24 h; MHH-CALL-4 cells; vehicle control = 100%; read-out: Target Protein Degradation (% remaining at 100 nM, 24 h) JAK3
T3 construct: endogenous in cells; host or cells: MHH-CALL-4
T3 sequence (P52333 1-1124): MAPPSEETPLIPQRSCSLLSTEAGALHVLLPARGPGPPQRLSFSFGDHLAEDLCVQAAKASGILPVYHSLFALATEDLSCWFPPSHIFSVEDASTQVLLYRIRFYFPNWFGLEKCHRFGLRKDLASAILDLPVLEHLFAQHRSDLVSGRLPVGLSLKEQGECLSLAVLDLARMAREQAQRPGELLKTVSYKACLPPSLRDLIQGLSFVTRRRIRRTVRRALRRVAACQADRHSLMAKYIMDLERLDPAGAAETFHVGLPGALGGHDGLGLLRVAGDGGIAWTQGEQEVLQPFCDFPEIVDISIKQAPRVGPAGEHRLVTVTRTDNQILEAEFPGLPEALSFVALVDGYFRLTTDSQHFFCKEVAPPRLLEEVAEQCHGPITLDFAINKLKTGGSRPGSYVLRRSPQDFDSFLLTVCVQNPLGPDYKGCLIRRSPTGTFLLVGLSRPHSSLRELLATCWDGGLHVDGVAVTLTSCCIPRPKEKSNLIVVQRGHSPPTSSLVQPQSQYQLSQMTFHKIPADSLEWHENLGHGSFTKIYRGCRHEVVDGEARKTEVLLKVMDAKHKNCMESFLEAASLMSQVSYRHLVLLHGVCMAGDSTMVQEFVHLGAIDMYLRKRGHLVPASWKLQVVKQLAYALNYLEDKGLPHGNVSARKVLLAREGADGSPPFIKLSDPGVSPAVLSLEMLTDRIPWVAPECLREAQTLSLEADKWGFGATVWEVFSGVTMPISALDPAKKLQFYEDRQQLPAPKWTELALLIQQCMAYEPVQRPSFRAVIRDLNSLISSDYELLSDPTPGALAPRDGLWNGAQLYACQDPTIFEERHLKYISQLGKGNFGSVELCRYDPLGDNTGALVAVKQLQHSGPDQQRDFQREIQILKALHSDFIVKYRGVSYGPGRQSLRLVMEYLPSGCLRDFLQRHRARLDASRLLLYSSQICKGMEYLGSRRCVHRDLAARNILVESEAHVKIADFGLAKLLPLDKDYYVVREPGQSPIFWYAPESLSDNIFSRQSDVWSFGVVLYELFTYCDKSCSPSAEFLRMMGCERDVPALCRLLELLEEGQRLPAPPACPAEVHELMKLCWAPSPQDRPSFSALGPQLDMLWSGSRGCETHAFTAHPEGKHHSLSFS
Summary of the method: as §1

[6] = target: T4, TYK2 (Homo sapiens, UniProt P29597); assay: Western blot assay, TYK2 protein degradation; conditions: MHH-CALL-4 cells, vehicle control = 100%
T4 construct: endogenous in cells; host or cells: MHH-CALL-4
Protocol: as §2

[7] = target: T5, JAK1 (Homo sapiens, UniProt P23458); assay: Western blot assay, JAK1 protein degradation; conditions: MHH-CALL-4 cells, vehicle control = 100%
T5 construct: endogenous in cells; host or cells: MHH-CALL-4
Summary of the method: as §1

T1 sequence (P15170 whole entry): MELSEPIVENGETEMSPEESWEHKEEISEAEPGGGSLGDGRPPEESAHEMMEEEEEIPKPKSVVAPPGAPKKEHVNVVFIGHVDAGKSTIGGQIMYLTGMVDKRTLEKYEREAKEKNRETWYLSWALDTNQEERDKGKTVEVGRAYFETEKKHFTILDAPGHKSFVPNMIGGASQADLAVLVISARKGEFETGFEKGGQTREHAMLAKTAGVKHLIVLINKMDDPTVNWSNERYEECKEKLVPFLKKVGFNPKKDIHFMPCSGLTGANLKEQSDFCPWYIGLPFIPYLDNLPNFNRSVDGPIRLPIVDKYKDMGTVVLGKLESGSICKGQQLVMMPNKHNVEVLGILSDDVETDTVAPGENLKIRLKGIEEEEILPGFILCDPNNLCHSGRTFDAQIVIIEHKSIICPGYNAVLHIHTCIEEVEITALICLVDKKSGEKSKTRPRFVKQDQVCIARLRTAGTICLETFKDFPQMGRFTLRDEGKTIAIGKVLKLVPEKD
T2 sequence (Q13422 whole entry): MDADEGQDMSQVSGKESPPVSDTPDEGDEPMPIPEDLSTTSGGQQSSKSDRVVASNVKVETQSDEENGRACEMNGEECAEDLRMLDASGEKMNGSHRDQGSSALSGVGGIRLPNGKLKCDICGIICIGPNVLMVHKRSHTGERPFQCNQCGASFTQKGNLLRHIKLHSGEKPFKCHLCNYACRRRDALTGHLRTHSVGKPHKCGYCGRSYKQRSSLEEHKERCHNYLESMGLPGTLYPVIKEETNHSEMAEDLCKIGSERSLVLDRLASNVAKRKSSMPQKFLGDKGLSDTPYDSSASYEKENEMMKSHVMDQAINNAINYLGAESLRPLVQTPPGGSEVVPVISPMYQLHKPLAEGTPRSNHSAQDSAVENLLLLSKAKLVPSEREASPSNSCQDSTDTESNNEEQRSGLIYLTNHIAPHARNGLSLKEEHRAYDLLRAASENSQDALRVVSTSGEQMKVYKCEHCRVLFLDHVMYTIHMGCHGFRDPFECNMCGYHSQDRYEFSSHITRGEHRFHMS
T5 sequence (P23458 whole entry): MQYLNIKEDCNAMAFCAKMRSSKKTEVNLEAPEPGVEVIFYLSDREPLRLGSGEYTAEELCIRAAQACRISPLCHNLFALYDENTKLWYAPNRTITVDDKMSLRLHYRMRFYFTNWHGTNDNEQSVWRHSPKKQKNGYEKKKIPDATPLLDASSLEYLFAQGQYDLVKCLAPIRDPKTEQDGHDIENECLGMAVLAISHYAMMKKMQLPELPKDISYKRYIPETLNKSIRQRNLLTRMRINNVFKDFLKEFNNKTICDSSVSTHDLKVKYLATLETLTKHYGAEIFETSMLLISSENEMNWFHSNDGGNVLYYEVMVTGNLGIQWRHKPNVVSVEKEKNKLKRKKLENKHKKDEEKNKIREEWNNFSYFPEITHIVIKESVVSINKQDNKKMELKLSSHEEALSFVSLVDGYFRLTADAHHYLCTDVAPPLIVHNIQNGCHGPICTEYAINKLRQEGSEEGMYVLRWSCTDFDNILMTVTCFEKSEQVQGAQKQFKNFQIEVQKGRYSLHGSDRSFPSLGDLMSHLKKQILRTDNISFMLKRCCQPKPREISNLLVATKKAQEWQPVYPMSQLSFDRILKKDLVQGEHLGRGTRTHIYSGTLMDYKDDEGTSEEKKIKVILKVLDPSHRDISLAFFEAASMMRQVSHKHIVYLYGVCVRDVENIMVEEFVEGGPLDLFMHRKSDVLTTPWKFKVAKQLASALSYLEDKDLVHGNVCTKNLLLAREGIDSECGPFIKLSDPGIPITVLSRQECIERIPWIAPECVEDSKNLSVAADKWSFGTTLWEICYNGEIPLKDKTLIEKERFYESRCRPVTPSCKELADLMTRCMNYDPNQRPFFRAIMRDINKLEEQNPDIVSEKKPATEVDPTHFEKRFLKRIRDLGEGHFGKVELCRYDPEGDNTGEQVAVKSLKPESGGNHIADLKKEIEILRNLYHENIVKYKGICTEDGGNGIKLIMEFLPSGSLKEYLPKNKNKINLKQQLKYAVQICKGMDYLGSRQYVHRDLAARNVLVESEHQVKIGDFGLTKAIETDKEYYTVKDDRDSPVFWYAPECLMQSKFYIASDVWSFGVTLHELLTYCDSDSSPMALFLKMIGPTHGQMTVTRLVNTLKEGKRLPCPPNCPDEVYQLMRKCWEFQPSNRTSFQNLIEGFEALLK
T4 sequence (P29597 whole entry): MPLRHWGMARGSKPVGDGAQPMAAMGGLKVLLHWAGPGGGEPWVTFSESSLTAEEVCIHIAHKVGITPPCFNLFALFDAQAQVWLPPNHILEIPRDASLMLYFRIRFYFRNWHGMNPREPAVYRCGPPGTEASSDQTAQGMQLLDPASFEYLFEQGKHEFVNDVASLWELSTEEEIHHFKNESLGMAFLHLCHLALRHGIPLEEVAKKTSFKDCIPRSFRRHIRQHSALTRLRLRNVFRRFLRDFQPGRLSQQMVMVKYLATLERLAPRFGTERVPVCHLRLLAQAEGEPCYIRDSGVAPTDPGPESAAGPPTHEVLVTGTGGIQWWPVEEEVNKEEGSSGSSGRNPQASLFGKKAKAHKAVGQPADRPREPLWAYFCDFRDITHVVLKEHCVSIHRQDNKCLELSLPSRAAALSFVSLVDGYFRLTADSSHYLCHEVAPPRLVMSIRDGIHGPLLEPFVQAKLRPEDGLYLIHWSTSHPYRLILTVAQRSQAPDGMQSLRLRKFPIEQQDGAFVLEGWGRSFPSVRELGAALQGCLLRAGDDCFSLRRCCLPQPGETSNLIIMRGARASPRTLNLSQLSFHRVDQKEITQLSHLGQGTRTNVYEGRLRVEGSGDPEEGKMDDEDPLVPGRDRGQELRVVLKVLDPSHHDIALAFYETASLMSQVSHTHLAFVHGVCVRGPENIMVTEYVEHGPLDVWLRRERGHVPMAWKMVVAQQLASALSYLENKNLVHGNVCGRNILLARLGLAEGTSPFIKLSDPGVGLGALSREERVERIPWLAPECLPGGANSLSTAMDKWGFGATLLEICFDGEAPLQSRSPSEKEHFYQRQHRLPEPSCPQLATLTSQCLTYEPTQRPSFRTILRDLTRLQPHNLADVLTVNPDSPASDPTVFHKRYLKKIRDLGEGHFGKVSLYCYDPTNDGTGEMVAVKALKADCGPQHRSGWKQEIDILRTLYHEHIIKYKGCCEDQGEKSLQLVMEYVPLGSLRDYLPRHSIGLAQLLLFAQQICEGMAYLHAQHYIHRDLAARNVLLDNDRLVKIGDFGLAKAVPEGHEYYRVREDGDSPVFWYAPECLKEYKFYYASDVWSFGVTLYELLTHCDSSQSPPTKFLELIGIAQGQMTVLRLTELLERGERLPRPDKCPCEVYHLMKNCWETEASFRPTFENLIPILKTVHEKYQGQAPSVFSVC

Row | Compound | remaining activity at 0.1 µM [1] | Target Protein Degradation (% remaining at 100 nM, 24 h) JAK2 [2] | Neosubstrate Degradation (% remaining at 100 nM, 24 h) IKZF1 [3] | EC50 [4] | AUC [4] | remaining activity at 0.1 µM [5] | Target Protein Degradation (% remaining at 100 nM, 24 h) TYK2 [6] | Target Protein Degradation (% remaining at 100 nM, 24 h) JAK1 [7]
1 | CCS(=O)(=O)N1CC(CC#N)(n2cc(-c3nc(Nc4ccc(C(=O)NCCCN5CCN(c6ccc(C7CCC(=O)NC7=O)cc6)CC5)cc4)nc4[nH]ccc34)cn2)C1 (centres unmarked) [Compound 10] | 109% | 25 % remaining | 87 % remaining | 2580 nM | 114 | 46% | 118 % remaining | 86 % remaining
2 | CCS(=O)(=O)N1CC(CC#N)(n2cc(-c3nc(Nc4ccc(C(=O)NCCNC(=O)COc5ccc(C6CCC(=O)NC6=O)cc5)cc4)nc4[nH]ccc34)cn2)C1 (centres unmarked) [Compound 17] | 110% | 120 % remaining | 96 % remaining | > 784 nM |  | 102% | 88 % remaining | 105 % remaining
3 | CCS(=O)(=O)N1CC(CC#N)(n2cc(-c3nc(Nc4ccc(C(=O)NCCCNC(=O)COc5ccc(C6CCC(=O)NC6=O)cc5)cc4)nc4[nH]ccc34)cn2)C1 (centres unmarked) [Compound 18] | 117% | 82 % remaining | 105 % remaining | > 812 nM | 95 | 80% | 122 % remaining | 83 % remaining
